Values of other authors in patent publication US20090011041A1, “Compositions for Correcting Age Related Changes of a Human Endocrine System and Methods for Producing a Pharmaceutical Form Bases on Said Compositions” (priority 2004, published 2009).
Read-outs that look alike come from different tables or passages of the source.

Tests used:
[1] = tested on: production of IL-6 by peripheral mononuclears; settings: dose-dependent manner; p<0.01
[2] = for distribution volume: after PO use
IGF-1 level = settings: elderly patients; 50 mg/day; p<0.01
[3] = DHEA 50 mg/day, placebo effect less than 10%

Structure (SMILES)	production of IL-6 by peripheral mononuclears [1]	distribution volume [2] [L]	half-life period ([2]; b32) [h]	half-life period ([2]; b33) [h]	metabolic clearance rate (MCR) ([2]; in vivo) [L/day]	renal excretion, share of the elimination of DHEA-S and its metabolites ([2]; in vivo)	half-life elimination period ([2]; b33) [h]	IGF-1 level (IGF-1 level)	improvement in the physical and mental state, females ([3]; females) [%]	improvement in the physical and mental state, males ([3]; males) [%]	hyperglycemia and hyperinsulinemia (diabetic mice)
C[C@]12CC[C@H](OS(=O)(=O)O)CC1=CC[C@@H]1[C@@H]2CC[C@]2(C)C(=O)CC[C@@H]12 [DHEA-S, DHEA-sulfate]	inhibit the production of IL-6	8.5 to 9.3	7 to 10	7 to 22	5 to 20	51-73%					
C[C@]12CC[C@H](O)CC1=CC[C@@H]1[C@@H]2CC[C@]2(C)C(=O)CC[C@@H]12 [DHEA, dehydroepiandrosterone]	inhibit the production of IL-6	17 to 38.5	0.25 to 0.5		2000		0.25 to 0.633	increases the IGF-1 level	84	67	reduces hyperglycemia and hyperinsulinemia
C[C@]12CCC(=O)C=C1CC[C@@H]1[C@@H]2CC[C@]2(C)C(=O)CC[C@@H]12 [androstenedione]	inhibit the production of IL-6										
